Test results as given in patent US20140163082A1, “PYRAZOLYL COMPOUNDS FOR USE IN REVERSING REACTIVE GLIOSIS” (priority 2011, published 2014).

Key:
[1] = tested on: retinal vasculature in OIR mouse model; assay: Morphometric assessment of retinal vascular density (CD31 staining), OIR mouse model; type: in vivo, C57BL/6J mice; conditions: OIR mice, P17; DMSO 88, normoxic 154
Description: Retinal NV was induced in newborn mice as described previously. Briefly, P7 mice were exposed with their nursing mother, for 5 days [between P7 and P12] to hyperoxic conditions, by incubating them in an airtight chamber [PROOX 110 chamber O2 controller; Biospherix Ltd., Redfield, N.Y.] ventilated by a mixture of O2 and air to a final oxygen fraction of 75±2%. These incubation conditions induced vaso-obliteration and subsequent cessation of vascular development in the capillary beds of the central retina. At P12, the mice were allowed to recover in normal room air conditions and maintained for another 5 days [till P17], the day in which peak disease occurs. A condition of relative hypoxia resulted between P12 and P17, and extensive retinal NV developed in 100% of the mice. […]
Retinas were harvested at various time points and fixed with 4% paraformaldehyde (PFA) and methanol followed by blocking in 50% FBS/20% normal goat serum for 1 hour at room temperature. […] Quantitation of PECAM/CD-31 immunostaining was processed morphometrically using Metamorph™ imaging software [Universal Imaging, Sunnyvale, Calif.] to determine the area of positive staining for YC-1-treatedt vs. control group. […] All results were expressed as meant S.E.M. Differences were considered statistically significant at **P<0.01.

[2] = tested on: ischemic retinas; assay: Real time RT-PCR analysis, in vivo (OIR retinas); design: species or system C57BL/6J mice; conditions: OIR mice
Source text: mRNA levels for HIF-1, VEGF, PDGF-B, GFAP and iNOS were quantified by Real time RTPCR. We used the primers summarized in [FIG. 6C] for RT-PCR. Gene-specific molecular beacons and primers were designed to encompass the genes of interest, with beacon's annealing site to overlap with the exon-exon junctions for additional specificity [Beacon Designer 6.0, Premier Biosoft International, Palo Alto, Calif., USA]. Threshold cycle [Ct] values for the different samples were utilized for the calculation of gene expression fold change using the formula 2 to the minus power of delta delta ct. Fold changes in the HIF-1, VEGF, PDGF-B, GFAP and iNOS gene relative to the β-actin endogenous control gene were determined by the following equation: fold change=2−Δ[ΔC T], where change in threshold cycle [ΔCT]=CT [gene of interest]−CT [β-actin] and Δ [ΔCT]=ΔCT [treated]−ΔCT [untreated].
Retinal NV was induced in newborn mice as described previously. Briefly, P7 mice were exposed with their nursing mother, for 5 days [between P7 and P12] to hyperoxic conditions, by incubating them in an airtight chamber [PROOX 110 chamber O2 controller; Biospherix Ltd., Redfield, N.Y.] ventilated by a mixture of O2 and air to a final oxygen fraction of 75±2%. These incubation conditions induced vaso-obliteration and subsequent cessation of vascular development in the capillary beds of the central retina. At P12, the mice were allowed to recover in normal room air conditions and maintained for another 5 days [till P17], the day in which peak disease occurs. A condition of relative hypoxia resulted between P12 and P17, and extensive retinal NV developed in 100% of the mice. Age-matched animals with the hyperoxia-exposed groups were maintained identically, except they were exposed to room air […], 79% N2] for the entire duration of the experiment. All animals were examined and sacrificed on the same days.
A group of hyperoxia-exposed animals [n=15] were injected intravitreally [into both eyes] at P12 and P15 with 3 μl of YC-1 [100 μM] [drug-treated group]. Another group of hyperoxiaexposed mice [n=15] were injected intravitreally [into both eyes] at P12 and P15 with 3 μl of DMSO [0.2% [v/v]] [mock-treated group]. Non-treated mice grown under ambient conditions, non-treated hyperoxia-exposed mice, DMSO-treated hyperoxia-exposed mice and YC-1-treated hyperoxia-exposed mice, were all examined at different critical time points for qualitative assessment of the retinal vasculature by fluorescein angiography.

[3] = tested on: R28 cells; assay: Western blot, R28; type: cell-based, rat; conditions: R28, hypoxia 48 hours, YC-1 25-100 μM
Description: Cells were placed in airtight chambers [BioSpherix, Redfield, N.Y.] and the O2 tension was maintained at 1.2% by using Pro-Ox Model 110 O2 regulator [BioSpherix, Redfield, N.Y.]. The chamber was purged with a gas mixture of 5.32% CO2, and 93.48% N2. […] Müller cells [rMC-1] and […] cells were seeded overnight in 6-well plates [10^5 cells/well]. Cells were treated with either YC-1 [25-100 μM] or DMSO [0.2% v/v] for 48 hours under normoxic or hypoxic environments. Reactions were terminated by addition of lysis buffer [Cell Signaling, Beverly, Mass.]. Protein content of the cell lysates was determined according to the Bradford method [Bio-Rad, Hercules, Calif.]. Aliquots [40 μg] of whole-cell lysates were separated on 7.5% SDS-PAGE, and electro-transferred onto polyvinylidene membranes [Amersham Pharmacia Biotech, Little Chalfont]. After blocking with 5% nonfat dry milk in TBS-T, the blots were incubated overnight with anti-iNOS [at 1:100] and anti-β-actin [internal control] antibodies. Then blots were washed 3×10 min washes in PBS/tween and subsequently incubated with peroxidase-conjugated anti-mouse IgG secondary antibody at 1:3000. The signals were obtained by enhanced chemiluminescence [Amersham Biosciences], and visualized by exposure to X-ray film. Upon completion of chemiluminescence, equal lane loading was checked by Ponceau S Solution [Sigma, St. Louis, Mo.]. X-ray films were scanned with a computer-assisted densitometer [model G-710; Bio-Rad] to quantify band optical density [Quantity One software; Bio-Rad].

[4] = tested on: ischemic retinas of the OIR mouse model; conditions: refs [16, 18]; cited from earlier work
[5] = 100 μM YC-1, vs DMSO-treated retinas

For `OCc1ccc(-c2nn(Cc3ccccc3)c3ccccc23)o1` [YC-1, 3-(5′-hydroxymethyl-2′-furyl)-1-benzylindazole], the “mean vascular density (endothelial cells per reticle square, CD31)” value [1] was 148±2, the “PDGF-B message (mRNA) level in retina” value [2, 5] was “significantly attenuated” and the “VEGF message (mRNA) level in retina” value [2, 5] was “significantly attenuated”. For the same compound, the “iNOS message (mRNA) level in retina” value [2, 5] was “significantly attenuated”, the “HIF-1α message (mRNA) level in retinal tissue” value ([2]; YC-1) was “did not have any influence” and the “GFAP message (mRNA) level in retina” value ([2]; YC-1 dual injection, vs DMSO, normalized to β-actin) was “significantly attenuated”. For the same compound, the “HIF-1 protein level (Western blot)” value ([3]; vs DMSO-treated hypoxic cells) was “inhibited the hypoxia-induced upregulation”, the “PDGF-B protein level (Western blot)” value ([3]; vs DMSO-treated hypoxic cells) was “inhibited the hypoxia-induced upregulation” and the “VEGF protein level (Western blot)” value ([3]; vs DMSO-treated hypoxic cells) was “inhibited the hypoxia-induced upregulation”. The “iNOS protein level (Western blot)” value ([3]; vs DMSO-treated hypoxic cells) was “inhibited the hypoxia-induced upregulation”, the “GFAP protein level (Western blot)” value ([3]; vs non-treated hypoxic cells) was “inhibited the hypoxia-induced GFAP protein levels in a dose-dependent manner” and the “HIF-1 and other proangiogenic factors [VEGF, MMP-9, ET-1, and EPO]” value [4] was “inhibits”.
